Test results from ChEMBL document CHEMBL1201862, “PubChem BioAssay data set” (2004).
Calls of active or inactive are those of the source.

Assays:
[1] = molecular target: T1, Ubiquitin-conjugating enzyme E2 N (Homo sapiens, UniProt P61088); format: functional;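 also: Dose-response confirmation in a TR-FRET assay detecting UBC13-driven polyubiquitin chain formation, inhibition measured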
T1 sequence (P61088 whole entry): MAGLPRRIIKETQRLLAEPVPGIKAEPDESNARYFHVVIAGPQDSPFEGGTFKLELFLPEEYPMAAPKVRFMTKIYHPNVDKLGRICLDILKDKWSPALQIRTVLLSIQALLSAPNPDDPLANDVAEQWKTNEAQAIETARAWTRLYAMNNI

[2] = cells; format: functional
[3] = HepG2 cell cytotoxicity, dose response, cytotoxicity control for non-replicating M. tuberculosis project (AID 489018); format: functional; conditions: Mycobacterium tuberculosis
[4] = molecular target: T2, Apoptotic protease-activating factor 1 (Homo sapiens, UniProt O14727); format: functional
T2 sequence (O14727 whole entry): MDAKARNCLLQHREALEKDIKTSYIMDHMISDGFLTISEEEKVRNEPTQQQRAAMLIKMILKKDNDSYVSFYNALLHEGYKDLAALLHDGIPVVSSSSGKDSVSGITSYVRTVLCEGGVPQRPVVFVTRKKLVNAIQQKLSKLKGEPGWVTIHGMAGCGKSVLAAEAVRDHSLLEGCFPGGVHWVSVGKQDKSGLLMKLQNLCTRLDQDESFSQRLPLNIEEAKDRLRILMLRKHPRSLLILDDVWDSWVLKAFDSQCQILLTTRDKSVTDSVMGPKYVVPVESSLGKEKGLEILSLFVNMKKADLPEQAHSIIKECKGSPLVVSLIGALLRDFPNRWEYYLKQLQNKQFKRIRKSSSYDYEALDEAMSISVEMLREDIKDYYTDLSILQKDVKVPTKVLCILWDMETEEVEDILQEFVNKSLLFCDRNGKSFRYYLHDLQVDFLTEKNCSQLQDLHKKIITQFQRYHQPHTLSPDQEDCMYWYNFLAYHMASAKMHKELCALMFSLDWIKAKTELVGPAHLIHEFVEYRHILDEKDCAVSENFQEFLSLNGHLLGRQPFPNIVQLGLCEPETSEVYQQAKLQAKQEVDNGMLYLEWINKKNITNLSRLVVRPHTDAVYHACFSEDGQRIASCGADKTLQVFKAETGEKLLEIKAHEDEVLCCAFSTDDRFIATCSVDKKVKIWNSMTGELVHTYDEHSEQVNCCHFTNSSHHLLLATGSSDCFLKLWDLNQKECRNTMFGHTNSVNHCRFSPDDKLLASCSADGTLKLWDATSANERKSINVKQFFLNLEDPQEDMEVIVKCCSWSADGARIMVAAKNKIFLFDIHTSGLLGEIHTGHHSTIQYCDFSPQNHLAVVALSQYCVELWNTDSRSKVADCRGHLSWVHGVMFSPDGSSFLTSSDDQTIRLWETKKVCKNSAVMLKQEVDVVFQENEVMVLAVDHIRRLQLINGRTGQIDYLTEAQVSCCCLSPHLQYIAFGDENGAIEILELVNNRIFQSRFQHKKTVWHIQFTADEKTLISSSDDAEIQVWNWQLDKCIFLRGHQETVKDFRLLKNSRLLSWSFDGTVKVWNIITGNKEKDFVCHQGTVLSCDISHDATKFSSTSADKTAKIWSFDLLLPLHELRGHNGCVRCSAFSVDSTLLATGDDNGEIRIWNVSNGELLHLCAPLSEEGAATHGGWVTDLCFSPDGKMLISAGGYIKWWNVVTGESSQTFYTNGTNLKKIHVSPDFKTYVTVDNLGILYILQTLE

[5] = molecular target: T3, Replicative DNA helicase DnaB (Mycobacterium tuberculosis, UniProt P9WMR3); test: DnaB intein splicing inhibitors, dose response, biochemical, cell-free fluorescence (AID 449749); format: functional
T3 sequence (P9WMR3 whole entry): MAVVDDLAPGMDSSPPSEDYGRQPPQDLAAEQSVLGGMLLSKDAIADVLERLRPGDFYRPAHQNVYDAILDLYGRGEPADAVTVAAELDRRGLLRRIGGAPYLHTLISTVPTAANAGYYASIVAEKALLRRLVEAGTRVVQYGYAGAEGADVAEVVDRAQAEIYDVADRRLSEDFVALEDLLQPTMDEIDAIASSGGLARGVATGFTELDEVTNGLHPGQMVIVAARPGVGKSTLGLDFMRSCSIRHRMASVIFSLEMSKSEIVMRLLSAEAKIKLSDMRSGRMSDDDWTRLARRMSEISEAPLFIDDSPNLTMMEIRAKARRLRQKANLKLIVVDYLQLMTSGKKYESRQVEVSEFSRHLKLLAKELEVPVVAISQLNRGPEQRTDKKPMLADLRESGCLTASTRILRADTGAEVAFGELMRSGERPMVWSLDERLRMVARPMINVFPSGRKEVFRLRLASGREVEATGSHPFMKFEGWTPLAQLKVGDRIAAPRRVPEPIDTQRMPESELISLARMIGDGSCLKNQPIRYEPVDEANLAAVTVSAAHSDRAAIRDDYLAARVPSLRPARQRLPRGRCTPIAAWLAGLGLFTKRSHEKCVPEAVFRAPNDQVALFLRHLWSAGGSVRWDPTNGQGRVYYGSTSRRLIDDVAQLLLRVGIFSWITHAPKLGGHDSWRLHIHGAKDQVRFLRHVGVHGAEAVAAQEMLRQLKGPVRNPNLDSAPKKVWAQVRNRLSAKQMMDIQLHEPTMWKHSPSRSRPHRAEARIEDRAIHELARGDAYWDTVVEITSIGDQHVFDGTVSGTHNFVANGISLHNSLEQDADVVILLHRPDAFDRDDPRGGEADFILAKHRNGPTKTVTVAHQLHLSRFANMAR

[6] = molecular target: T4, Protein RecA (Mycobacterium tuberculosis, UniProt P9WHJ3); test: Fluorescence Cell-Free Homogeneous Dose Retest to Identify Inhibitors of RecA-Intein Splicing Activity. [Related pubchem assays (depositor defined):AID2097, AID2223, AID489010, AID492950]; format: functional
T4 sequence (P9WHJ3 whole entry): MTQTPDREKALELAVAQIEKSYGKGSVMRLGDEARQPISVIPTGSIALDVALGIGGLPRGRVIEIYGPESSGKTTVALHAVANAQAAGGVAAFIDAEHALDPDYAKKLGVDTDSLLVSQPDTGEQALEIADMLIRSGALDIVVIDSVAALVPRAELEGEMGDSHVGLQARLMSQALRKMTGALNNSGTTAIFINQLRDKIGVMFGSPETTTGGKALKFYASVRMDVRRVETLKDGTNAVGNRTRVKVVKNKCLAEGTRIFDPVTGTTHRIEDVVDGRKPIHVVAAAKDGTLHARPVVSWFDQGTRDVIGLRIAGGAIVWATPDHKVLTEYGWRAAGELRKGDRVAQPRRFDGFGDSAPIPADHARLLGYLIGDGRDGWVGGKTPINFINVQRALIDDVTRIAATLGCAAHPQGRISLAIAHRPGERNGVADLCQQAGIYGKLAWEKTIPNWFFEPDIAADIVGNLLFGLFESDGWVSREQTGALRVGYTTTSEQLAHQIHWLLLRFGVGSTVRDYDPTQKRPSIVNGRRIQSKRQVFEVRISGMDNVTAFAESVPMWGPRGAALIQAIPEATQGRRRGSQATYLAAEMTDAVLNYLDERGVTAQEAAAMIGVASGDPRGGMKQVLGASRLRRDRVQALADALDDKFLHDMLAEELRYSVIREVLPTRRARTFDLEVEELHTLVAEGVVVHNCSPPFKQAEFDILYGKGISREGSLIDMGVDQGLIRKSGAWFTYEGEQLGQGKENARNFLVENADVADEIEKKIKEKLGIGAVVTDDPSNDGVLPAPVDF

[7] = molecular target: Nonstructural protein 1 (Influenza A virus, UniProt Q194T2); format: functional, Influenza A virus (A/California/07/2009(H1N1))
Sequence of Nonstructural protein 1 (Q194T2 whole entry): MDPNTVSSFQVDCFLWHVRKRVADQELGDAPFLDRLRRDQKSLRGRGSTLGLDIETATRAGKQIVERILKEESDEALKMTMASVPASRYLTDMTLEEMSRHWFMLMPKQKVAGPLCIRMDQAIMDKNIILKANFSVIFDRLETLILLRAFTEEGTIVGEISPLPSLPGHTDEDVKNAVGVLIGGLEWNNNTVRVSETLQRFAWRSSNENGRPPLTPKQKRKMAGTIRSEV

[8] = THP-1 cell cytotoxicity, dose response, cytotoxicity control for non-replicating M. tuberculosis project (AID 489025); format: functional
[9] = Vero E6 cell cytotoxicity, dose response, cytotoxicity control for non-replicating M. tuberculosis project, secondary assay (AID 492998); format: functional, VeroE6; conditions: Vero C1008
[10] = molecular target: T5, Kappa-type opioid receptor (Homo sapiens, UniProt P41145); test: SAR analysis of Antagonists of the Kappa Opioid Receptor (KOR) using an Image-Based Assay - Set 4. [Related pubchem assays (depositor defined):AID1777, AID1785]; format: functional
T5 sequence (P41145 whole entry): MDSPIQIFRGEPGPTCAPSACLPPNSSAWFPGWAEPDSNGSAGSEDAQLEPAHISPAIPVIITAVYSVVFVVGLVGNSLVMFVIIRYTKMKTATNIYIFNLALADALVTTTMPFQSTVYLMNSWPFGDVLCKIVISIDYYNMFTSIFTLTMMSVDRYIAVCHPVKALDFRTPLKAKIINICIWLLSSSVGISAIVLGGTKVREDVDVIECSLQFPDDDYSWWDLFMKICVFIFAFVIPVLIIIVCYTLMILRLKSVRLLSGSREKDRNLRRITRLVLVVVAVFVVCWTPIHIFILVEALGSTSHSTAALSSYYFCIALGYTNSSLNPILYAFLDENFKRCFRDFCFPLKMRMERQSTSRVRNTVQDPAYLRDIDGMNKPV

[11] = molecular target: Mu-type opioid receptor (Homo sapiens, UniProt P35372); test: SAR Analysis of Antagonists of the MOR Receptor using an Image-Based Assay - Set 3. [Related pubchem assays (depositor defined):AID1777, AID1785, AID1786, AID1966, AID2133, AID2136, AID2284, AID2285, AID2420]; format: functional
Sequence of Mu-type opioid receptor (P35372 whole entry): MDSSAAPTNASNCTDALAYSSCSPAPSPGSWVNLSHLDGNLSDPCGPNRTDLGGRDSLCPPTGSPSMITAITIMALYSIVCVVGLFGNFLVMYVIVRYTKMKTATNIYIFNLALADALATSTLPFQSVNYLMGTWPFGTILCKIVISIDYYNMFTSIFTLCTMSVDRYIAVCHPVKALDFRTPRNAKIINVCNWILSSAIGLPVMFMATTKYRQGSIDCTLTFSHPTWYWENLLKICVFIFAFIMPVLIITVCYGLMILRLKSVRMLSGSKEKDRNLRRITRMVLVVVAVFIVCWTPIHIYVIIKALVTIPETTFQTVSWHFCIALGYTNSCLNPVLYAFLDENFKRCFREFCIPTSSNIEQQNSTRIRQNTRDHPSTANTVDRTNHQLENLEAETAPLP

[12] = molecular target: Delta-type opioid receptor (Homo sapiens, UniProt P41143); test: SAR Analysis of Antagonists of the DOR Receptor using an Image-Based Assay - Set 3. [Related pubchem assays (depositor defined):AID1777, AID1785]; format: functional;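 also: U2OS cells expressing DOR1 and beta-arrestin GFP stimulated with 100 nM SNC80; imaging of GFP-tagged beta-arrestin moving into spots after receptor activation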
Sequence of Delta-type opioid receptor (P41143 whole entry): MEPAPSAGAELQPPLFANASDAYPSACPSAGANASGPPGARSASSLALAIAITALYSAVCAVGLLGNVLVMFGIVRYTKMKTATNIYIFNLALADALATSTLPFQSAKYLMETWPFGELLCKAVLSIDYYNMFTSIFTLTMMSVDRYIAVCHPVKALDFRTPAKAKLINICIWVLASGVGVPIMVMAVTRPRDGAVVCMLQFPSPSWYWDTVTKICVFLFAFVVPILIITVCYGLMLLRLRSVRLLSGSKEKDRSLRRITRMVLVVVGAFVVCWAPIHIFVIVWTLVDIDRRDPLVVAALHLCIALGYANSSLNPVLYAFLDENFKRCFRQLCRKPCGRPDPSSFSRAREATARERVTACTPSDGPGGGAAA

[13] = molecular target: T5, Kappa-type opioid receptor; test: SAR analysis of small molecule antagonists of the kappa opioid receptor via a luminescent beta-arrestin assay - Set 4. [Related pubchem assays (depositor defined):AID1777, AID1778, AID1785, AID1786, AID1966, AID2133, AID2136, AID2285]; format: functional
[14] = molecular target: T5, Kappa-type opioid receptor; test: SAR analysis of small molecule antagonists of the kappa opioid receptor via a luminescent beta-arrestin assay - Set 6. [Related pubchem assays (depositor defined):AID1777, AID1778, AID1785, AID1786, AID1966, AID2133, AID2136, AID2285]; format: functional
[15] = system: Vero; test: inhibition of WNV-induced cytopathic effect – cell-based, CPE readout (AID 1621); format: functional; conditions: Chlorocebus sabaeus
[16] = A Cell Based Assay for the Identification of Probe candidate Compounds with Anti- Venezuelan Equine Encephalitis virus. [Related pubchem assays: 2409, 2419, 1621, 2238, 2405, 2024, 2065, 2402, 2414, 1635, 1650, 2244 ]; format: functional
[17] = system: Vero; test: host cell viability loss, Vero E6 – synthesized analogs, cytotoxicity control for West Nile virus antiviral project, SAR follow-up (AID 2244); format: functional; conditions: Chlorocebus sabaeus
[18] = system: Vero; test: Vero cell viability after compound exposure – synthesized analogs, set II, cytotoxicity control for West Nile virus antiviral project, SAR follow-up (AID 2402); format: functional; conditions: Chlorocebus sabaeus
[19] = system: Vero; test: antiviral activity against WNV, CPE read-out – cell-based (AID 2419); format: functional; conditions: Chlorocebus sabaeus
[20] = system: Vero; test: antiviral protection of cells from WNV – synthesized analogs, SAR follow-up (AID 2238); format: functional, cell-based; conditions: Chlorocebus sabaeus
[21] = system: Vero; test: Vero 76 cell viability after compound exposure – Vero 76 cells, synthesized analogs, cytotoxicity control for West Nile virus antiviral project, SAR follow-up (AID 2414); format: functional; conditions: Chlorocebus sabaeus
[22] = molecular target: T6, SUMO-activating enzyme (Homo sapiens, UniProt Q9UBT2); test: blockers of UBC9-mediated SUMO conjugation – biochemical, AlphaScreen, SUMOylation inhibitor project, confirmation (AID 2018); format: functional
T6 sequence (Q9UBE0 whole entry): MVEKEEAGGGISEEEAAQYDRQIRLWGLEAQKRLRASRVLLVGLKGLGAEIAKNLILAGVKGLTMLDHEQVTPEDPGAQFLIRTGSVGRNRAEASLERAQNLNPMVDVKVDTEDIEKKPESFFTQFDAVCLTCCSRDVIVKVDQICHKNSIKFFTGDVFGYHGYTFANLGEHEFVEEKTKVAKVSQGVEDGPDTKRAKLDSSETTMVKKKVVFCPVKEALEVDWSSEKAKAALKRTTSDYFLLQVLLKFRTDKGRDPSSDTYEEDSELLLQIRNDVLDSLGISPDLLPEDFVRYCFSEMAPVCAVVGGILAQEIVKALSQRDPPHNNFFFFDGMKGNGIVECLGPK
T6 sequence (Q9UBT2 whole entry): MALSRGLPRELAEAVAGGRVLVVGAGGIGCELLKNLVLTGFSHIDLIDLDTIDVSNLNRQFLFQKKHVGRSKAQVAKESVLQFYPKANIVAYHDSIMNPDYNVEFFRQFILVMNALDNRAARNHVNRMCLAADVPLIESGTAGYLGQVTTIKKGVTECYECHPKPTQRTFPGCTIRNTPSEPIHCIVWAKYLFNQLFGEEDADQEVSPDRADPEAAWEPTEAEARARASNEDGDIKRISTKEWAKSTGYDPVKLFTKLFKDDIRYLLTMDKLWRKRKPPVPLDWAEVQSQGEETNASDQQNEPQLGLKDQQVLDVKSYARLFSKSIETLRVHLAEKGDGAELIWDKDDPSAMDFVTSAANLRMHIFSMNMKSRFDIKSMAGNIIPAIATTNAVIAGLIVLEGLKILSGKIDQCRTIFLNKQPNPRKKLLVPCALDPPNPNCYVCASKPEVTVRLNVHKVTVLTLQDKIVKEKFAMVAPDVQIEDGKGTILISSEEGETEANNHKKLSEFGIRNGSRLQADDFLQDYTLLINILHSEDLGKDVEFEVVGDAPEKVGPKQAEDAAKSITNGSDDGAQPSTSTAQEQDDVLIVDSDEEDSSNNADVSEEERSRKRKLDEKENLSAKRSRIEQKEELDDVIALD

[23] = system: Streptococcus; test: GAS UMAA2166 growth inhibition – luminescence, BacTiterGlo, counter-screen for streptokinase expression inhibitor project, dose response (AID 1915); format: functional, organism-based;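 also: potency for reduction of bacterial viability or growth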
[24] = molecular target: T6, SUMO-activating enzyme; test: blockers of SAE1/SAE2–UBC9 SUMO transfer – biochemical, HTRF, uHTS, primary screen (AID 2006); format: protein-complex assay
[25] = system: Streptococcus sp. 'group A'; test: Streptococcus pyogenes SK(-)GAS viability under kanamycin – luminescence, BacTiterGlo, confirmation, counter-screen for streptokinase expression inhibitor project, dose response (AID 1900); format: functional, organism-based
[26] = molecular target: Voltage-dependent T-type calcium channel subunit alpha-1H (Homo sapiens, UniProt O95180); test: human CACNA1H calcium influx blockade – cell-based, synthetic library set 1, calcium flux (AID 493022); format: functional
Sequence of Voltage-dependent T-type calcium channel subunit alpha-1H (O95180 whole entry): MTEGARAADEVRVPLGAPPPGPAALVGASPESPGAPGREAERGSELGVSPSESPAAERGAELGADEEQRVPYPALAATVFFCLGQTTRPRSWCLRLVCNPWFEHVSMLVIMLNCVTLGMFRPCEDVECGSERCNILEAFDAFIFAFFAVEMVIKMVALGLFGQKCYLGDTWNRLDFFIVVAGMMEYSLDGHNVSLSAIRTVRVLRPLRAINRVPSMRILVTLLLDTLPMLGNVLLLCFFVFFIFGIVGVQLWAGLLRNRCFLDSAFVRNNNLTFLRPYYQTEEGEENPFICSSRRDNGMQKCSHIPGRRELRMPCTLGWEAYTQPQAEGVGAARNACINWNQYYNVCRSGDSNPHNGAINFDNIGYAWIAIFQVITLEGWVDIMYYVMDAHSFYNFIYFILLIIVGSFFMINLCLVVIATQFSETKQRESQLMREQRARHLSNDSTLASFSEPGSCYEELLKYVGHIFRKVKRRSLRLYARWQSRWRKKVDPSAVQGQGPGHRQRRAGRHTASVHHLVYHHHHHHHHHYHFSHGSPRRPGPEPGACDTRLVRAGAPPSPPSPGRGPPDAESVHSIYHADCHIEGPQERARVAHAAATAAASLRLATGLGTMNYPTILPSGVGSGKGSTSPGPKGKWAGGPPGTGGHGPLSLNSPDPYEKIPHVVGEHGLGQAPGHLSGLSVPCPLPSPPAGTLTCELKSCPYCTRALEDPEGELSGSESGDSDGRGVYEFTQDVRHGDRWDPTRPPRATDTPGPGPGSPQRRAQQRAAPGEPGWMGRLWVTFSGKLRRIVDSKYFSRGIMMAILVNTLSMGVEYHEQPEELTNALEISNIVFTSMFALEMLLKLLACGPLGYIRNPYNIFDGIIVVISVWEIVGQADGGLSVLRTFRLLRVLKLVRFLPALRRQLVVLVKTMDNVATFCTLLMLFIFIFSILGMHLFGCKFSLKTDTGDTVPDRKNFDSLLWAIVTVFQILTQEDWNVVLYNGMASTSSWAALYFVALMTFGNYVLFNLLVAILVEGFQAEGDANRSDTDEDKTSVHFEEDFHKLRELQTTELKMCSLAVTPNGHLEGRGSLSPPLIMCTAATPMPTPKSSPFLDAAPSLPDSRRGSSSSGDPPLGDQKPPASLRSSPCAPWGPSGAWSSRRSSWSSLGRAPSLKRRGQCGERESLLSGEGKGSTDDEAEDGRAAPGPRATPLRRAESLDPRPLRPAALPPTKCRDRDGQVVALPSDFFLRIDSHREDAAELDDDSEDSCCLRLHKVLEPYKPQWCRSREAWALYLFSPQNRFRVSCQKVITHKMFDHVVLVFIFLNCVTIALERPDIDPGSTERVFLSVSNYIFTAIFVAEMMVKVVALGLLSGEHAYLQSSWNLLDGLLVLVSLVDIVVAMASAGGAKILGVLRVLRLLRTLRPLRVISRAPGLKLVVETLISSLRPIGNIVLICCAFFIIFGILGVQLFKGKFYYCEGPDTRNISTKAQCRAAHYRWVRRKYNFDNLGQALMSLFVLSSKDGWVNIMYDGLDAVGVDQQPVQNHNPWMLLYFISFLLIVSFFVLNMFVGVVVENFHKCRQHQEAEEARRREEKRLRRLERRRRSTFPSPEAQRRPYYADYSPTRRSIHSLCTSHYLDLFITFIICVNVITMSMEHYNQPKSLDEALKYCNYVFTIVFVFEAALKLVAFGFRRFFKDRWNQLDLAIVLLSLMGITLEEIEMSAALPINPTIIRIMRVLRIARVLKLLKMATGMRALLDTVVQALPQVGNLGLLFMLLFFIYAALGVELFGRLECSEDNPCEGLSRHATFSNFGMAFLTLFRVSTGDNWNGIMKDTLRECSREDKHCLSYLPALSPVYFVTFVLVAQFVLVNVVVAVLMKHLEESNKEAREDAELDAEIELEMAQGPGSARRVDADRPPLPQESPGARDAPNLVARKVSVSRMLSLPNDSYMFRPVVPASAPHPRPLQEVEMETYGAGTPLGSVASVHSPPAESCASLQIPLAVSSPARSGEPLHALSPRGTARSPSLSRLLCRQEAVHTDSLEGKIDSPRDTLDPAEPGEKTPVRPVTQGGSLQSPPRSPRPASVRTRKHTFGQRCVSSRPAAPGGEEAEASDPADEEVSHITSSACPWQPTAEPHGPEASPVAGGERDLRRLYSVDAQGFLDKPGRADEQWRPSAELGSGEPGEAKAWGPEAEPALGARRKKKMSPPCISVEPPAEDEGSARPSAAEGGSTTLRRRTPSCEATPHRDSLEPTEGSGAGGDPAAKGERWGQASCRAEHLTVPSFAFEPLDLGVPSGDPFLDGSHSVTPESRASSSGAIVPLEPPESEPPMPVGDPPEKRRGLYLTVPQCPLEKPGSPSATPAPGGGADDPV

For `CCOC(=O)C1=C(c2ccccc2)N=C(N)NC1c1ccc(OCc2ccc(C(=O)OC)cc2)cc1` (stereo unspecified), the IC50 [1] was > 20 µM (inactive), the IC50 [2] was 9.88 µM (active) and the CC50 [3] was > 20 µM (active). The IC50 [4] was 26.8 µM (active), the AC50 [5] was 15.6 µM (active) and the EC50 [6] was 11.8 µM (active). The IC50 [7] was 62.3 µM (active), the CC50 [8] was 11.8 µM (active) and the CC50 [9] was 18.2 µM (active).
For `Cc1ccc(S(=O)(=O)NCc2ccc(C(=O)NCCN3CCN(c4ccccc4)CC3)cc2)cc1`, the IC50 [10] was > 32 µM (inactive), the IC50 [11] was > 32 µM (inactive) and the IC50 [12] was > 32 µM (inactive). For the same molecule, the IC50 [13] was > 20 µM (inactive) and the IC50 [14] was > 20 µM (inactive).
In the case of `CCOC(=O)C1(Cc2ccccc2C(F)(F)F)CCN(C2CCN(C(C)C)CC2)CC1`, the IC50 [15] is reported as 18.6 µM (active), the IC50 [16] is reported as 6.36 µM (active) and the CC50 [17] is reported as 21.6 µM (active). For the same molecule, the CC50 [18] was 31.5 µM (active), the IC50 [19] was > 50 µM (active) and the IC50 [20] was 36.5 µM (active). The CC50 [21] was > 133 µM (active).
For `O=C(COc1ccc(Cl)cc1)Nc1nnc(-c2ccc3c(c2)CCCC3)o1`, the IC50 [22] was > 100 µM (inactive), the EC50 [23] was 1.83 µM (active) and the IC50 [24] was 48.2 µM (active). For the same molecule, the EC50 [25] was 0.489 µM (active) and the EC50 [26] was 2.8 µM (active).
